Laboratory results published in patent US9073855B2, “BCL-2 selective apoptosis-inducing agents for the treatment of cancer and immune diseases” (AbbVie Inc., priority 2008, dated 2015).

Columns and labels:
[1] = biological target: GST-Bcl-XL (Homo sapiens, UniProt Q07817); test: TR-FRET binding assay, GST-Bcl-XL with F-Bak peptide probe; details: TR-FRET Binding Affinity
Outline: (§1)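 Competitive TR-FRET: GST-fusion protein, fluorescent Bak peptide probe and Tb-labelled anti-GST antibody incubated with compound dilution series (starting 50 μM as 2× stock, 10% DMSO) for 3 h at RT. Excitation 340/35 nm; Ki derived via Wang's exact competitive-binding equation.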

[2] = biological target: GST-Bcl-2 (Homo sapiens, UniProt P10415); test: TR-FRET binding assay, GST-Bcl-2 with F-Bak peptide probe; details: for Ki: TR-FRET Binding Affinity; for Binding selectivity ratio (Bcl-XL Ki/Bcl-2 Ki): TR-FRET, Bcl-XL Ki divided by Bcl-2 Ki
Chain of GST-Bcl-2 (P10415 whole entry): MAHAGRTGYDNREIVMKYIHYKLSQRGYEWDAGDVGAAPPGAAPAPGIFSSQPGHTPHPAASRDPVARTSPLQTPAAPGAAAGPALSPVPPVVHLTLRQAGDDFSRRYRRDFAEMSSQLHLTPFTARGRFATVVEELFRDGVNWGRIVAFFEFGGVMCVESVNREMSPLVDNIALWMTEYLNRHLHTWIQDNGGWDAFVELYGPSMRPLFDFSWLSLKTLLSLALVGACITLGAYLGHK
Outline: as §1

Chain of GST-Bcl-XL (Q07817 whole entry, the tested form may be a part): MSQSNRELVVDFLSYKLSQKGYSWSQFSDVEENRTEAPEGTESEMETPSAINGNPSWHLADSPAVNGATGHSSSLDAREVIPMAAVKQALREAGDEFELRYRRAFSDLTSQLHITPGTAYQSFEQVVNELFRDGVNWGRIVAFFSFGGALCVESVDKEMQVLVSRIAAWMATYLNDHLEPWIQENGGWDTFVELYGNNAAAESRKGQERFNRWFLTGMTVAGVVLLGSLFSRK

| SMILES | Ki [1] | Ki [2] | Binding selectivity ratio (Bcl-XL Ki/Bcl-2 Ki) [2] |
| --- | --- | --- | --- |
| CC1(C)CCC(CN2CCN(c3ccc(C(=O)NS(=O)(=O)c4cnc(OCC5CC5(F)F)c(Cl)c4)c(Oc4cccc5[nH]ncc45)c3)CC2)=C(c2ccc(Cl)cc2)C1 (stereo not drawn) [Example 491, N-({5-chloro-6-[(2,2-difluorocyclopropyl)methoxy]pyridin-3-yl}sulfonyl)-4-(4-{[2-(4-chlorophenyl)-4,4-dimethylcyclohex-1-en-1-yl]methyl}piperazin-1-yl)-2-(1H-indazol-4-yloxy)benzamide] | 77.2 nM | 0.017 nM | 4600.5 |
| CC1(C)CCC(CN2CCN(c3ccc(C(=O)NS(=O)(=O)c4cnc(OC[C@H]5CC[C@H](C#N)CC5)c(Cl)c4)c(Oc4cccc5[nH]ncc45)c3)CC2)=C(c2ccc(Cl)cc2)C1 [Example 492, N-({5-chloro-6-[(trans-4-cyanocyclohexyl)methoxy]pyridin-3-yl}sulfonyl)-4-(4-{[2-(4-chlorophenyl)-4,4-dimethylcyclohex-1-en-1-yl]methyl}piperazin-1-yl)-2-(1H-indazol-4-yloxy)benzamide] | 45.1 nM | < 0.01 nM | >4509.6 |
| CC1(C)CCC(CN2CCN(c3ccc(C(=O)NS(=O)(=O)c4cnc(OCC5CCC(C)(O)CC5)c(Cl)c4)c(Oc4cccc5[nH]ncc45)c3)CC2)=C(c2ccc(Cl)cc2)C1 (stereo not drawn) [Example 493, N-({5-chloro-6-[(cis-4-hydroxy-4-methylcyclohexyl)methoxy]pyridin-3-yl}sulfonyl)-4-(4-{[2-(4-chlorophenyl)-4,4-dimethylcyclohex-1-en-1-yl]methyl}piperazin-1-yl)-2-(1H-indazol-4-yloxy)benzamide] | 41.9 nM | < 0.01 nM | >4188.3 |
| CC1(C)CCC(CN2CCN(c3ccc(C(=O)NS(=O)(=O)c4cnc(OCC5CCC(C)(O)CC5)c(Cl)c4)c(Oc4cccc5[nH]ncc45)c3)CC2)=C(c2ccc(Cl)cc2)C1 (stereo not drawn) [Example 494, N-({5-chloro-6-[(trans-4-hydroxy-4-methylcyclohexyl)methoxy]pyridin-3-yl}sulfonyl)-4-(4-{[2-(4-chlorophenyl)-4,4-dimethylcyclohex-1-en-1-yl]methyl}piperazin-1-yl)-2-(1H-indazol-4-yloxy)benzamide] | 15.6 nM | < 0.01 nM | >1556.6 |
| CC1(C)CC(c2ccc(Cl)cc2)=C(CN2CCN(c3ccc(C(=O)NS(=O)(=O)c4ccc(OCC5(F)CCOCC5)c(Cl)c4)c(Oc4cccc5[nH]ncc45)c3)CC2)CO1 [Example 496, N-({3-chloro-4-[(4-fluorotetrahydro-2H-pyran-4-yl)methoxy]phenyl}sulfonyl)-4-(4-{[4-(4-chlorophenyl)-6,6-dimethyl-5,6-dihydro-2H-pyran-3-yl]methyl}piperazin-1-yl)-2-(1H-indazol-4-yloxy)benzamide] | 43.3 nM | 0.078 nM | 558.9 |
| CC1(C)CCC(CN2CCN(c3ccc(C(=O)NS(=O)(=O)c4ccc(OCC5(F)CCOCC5)c(C(F)(F)F)c4)c(Oc4cccc5[nH]ncc45)c3)CC2)=C(c2ccc(Cl)cc2)C1 [Example 497, 4-(4-{[2-(4-chlorophenyl)-4,4-dimethylcyclohex-1-en-1-yl]methyl}piperazin-1-yl)-N-({4-[(4-fluorotetrahydro-2H-pyran-4-yl)methoxy]-3-(trifluoromethyl)phenyl}sulfonyl)-2-(1H-indazol-4-yloxy)benzamide] | 124 nM | 0.082 nM | 1517.4 |
| CC1(C)CCC(CN2CCN(c3ccc(C(=O)NS(=O)(=O)c4ccc(OCC5CCOCC5)c(Cl)c4)c(Oc4cccc5[nH]ncc45)c3)CC2)=C(c2ccc(Cl)cc2)C1 [Example 498, 4-(4-{[2-(4-chlorophenyl)-4,4-dimethylcyclohex-1-en-1-yl]methyl}piperazin-1-yl)-N-{[3-chloro-4-(tetrahydro-2H-pyran-4-ylmethoxy)phenyl]sulfonyl}-2-(1H-indazol-4-yloxy)benzamide] | 125 nM | < 0.01 nM | >12491.0 |
| CC1(C)CCC(CN2CCN(c3ccc(C(=O)NS(=O)(=O)c4ccc(OCC5(F)CCOCC5)c(Cl)c4)c(Oc4cccc5[nH]cnc45)c3)CC2)=C(c2ccc(Cl)cc2)C1 [Example 499, 2-(1H-benzimidazol-4-yloxy)-N-({3-chloro-4-[(4-fluorotetrahydro-2H-pyran-4-yl)methoxy]phenyl}sulfonyl)-4-(4-{[2-(4-chlorophenyl)-4,4-dimethylcyclohex-1-en-1-yl]methyl}piperazin-1-yl)benzamide] | 104 nM | < 0.01 nM | >10415.0 |
| CC1(C)CCC(CN2CCN(c3ccc(C(=O)NS(=O)(=O)c4cnc(OCC5CCOCC5)c(Cl)c4)c(Oc4cccc5[nH]cnc45)c3)CC2)=C(c2ccc(Cl)cc2)C1 [Example 500, 2-(1H-benzimidazol-4-yloxy)-4-(4-{[2-(4-chlorophenyl)-4,4-dimethylcyclohex-1-en-1-yl]methyl}piperazin-1-yl)-N-{[5-chloro-6-(tetrahydro-2H-pyran-4-ylmethoxy)pyridin-3-yl]sulfonyl}benzamide] | 147 nM | < 0.01 nM | >14734.0 |
| CC1(C)CCC(CN2CCN(c3ccc(C(=O)NS(=O)(=O)c4ccc(OCC5(F)CCOCC5)c(C#N)c4)c(Oc4cccc5[nH]ncc45)c3)CC2)=C(c2ccc(Cl)cc2)C1 [Example 501, 4-(4-{[2-(4-chlorophenyl)-4,4-dimethylcyclohex-1-en-1-yl]methyl}piperazin-1-yl)-N-({3-cyano-4-[(4-fluorotetrahydro-2H-pyran-4-yl)methoxy]phenyl}sulfonyl)-2-(1H-indazol-4-yloxy)benzamide] | 163 nM | 0.027 nM | 6025.7 |
| CC1(C)CCC(CN2CCN(c3ccc(C(=O)NS(=O)(=O)c4ccc(OCC5COCCO5)c(Cl)c4)c(Oc4cccc5[nH]ncc45)c3)CC2)=C(c2ccc(Cl)cc2)C1 (stereo not drawn) [Example 502, N-{[3-chloro-4-(1,4-dioxan-2-ylmethoxy)phenyl]sulfonyl}-4-(4-{[2-(4-chlorophenyl)-4,4-dimethylcyclohex-1-en-1-yl]methyl}piperazin-1-yl)-2-(1H-indazol-4-yloxy)benzamide] | 145 nM | 0.025 nM | 5754.1 |
| CC1(C)CCC(CN2CCN(c3ccc(C(=O)NS(=O)(=O)c4cnc(OC[C@@H]5CN(C6CC6)CCO5)c(Cl)c4)c(Oc4cccc5[nH]cnc45)c3)CC2)=C(c2ccc(Cl)cc2)C1 [Example 503, 2-(1H-benzimidazol-4-yloxy)-N-[(5-chloro-6-{[(2S)-4-cyclopropylmorpholin-2-yl]methoxy}pyridin-3-yl)sulfonyl]-4-(4-{[2-(4-chlorophenyl)-4,4-dimethylcyclohex-1-en-1-yl]methyl}piperazin-1-yl)benzamide] | 147 nM | 0.062 nM | 2356.5 |
| CC1(C)CCC(CN2CCN(c3ccc(C(=O)NS(=O)(=O)c4cnc(OC[C@@H]5CN(C6CC6)CCO5)c(Cl)c4)c(Oc4cccc5[nH]ncc45)c3)CC2)=C(c2ccc(Cl)cc2)C1 [Example 504, N-[(5-chloro-6-{[(2S)-4-cyclopropylmorpholin-2-yl]methoxy}pyridin-3-yl)sulfonyl]-4-(4-{[2-(4-chlorophenyl)-4,4-dimethylcyclohex-1-en-1-yl]methyl}piperazin-1-yl)-2-(1H-indazol-4-yloxy)benzamide] | 5.5 nM | < 0.01 nM | >549.9 |
